Laboratory results published in PMC7909954 (eLife, 2021).
Where “and” joins values, the source holds several entries; their conditions need not be identical. Identical values can stand only once. Entries after “also recorded” stand apart in the source; their conditions may differ. Like-named read-outs stand apart in the source and are kept apart here.

What was measured:
330 non-olfactory GPCRs = assay: PRESTO-Tango GPCRome β-arrestin recruitment off-target screen; type: cell-based; details: 3 μM, follow-up concentration–response
Method: To identify potential off-target activity of MP1207, we used the National Institutes of Mental Health Psychoactive Drug Screen Program. MP1207 was first tested for activity against 330 non-olfactory GPCRs using the PRESTO-Tango GPCRome screening β-arrestin recruitment assay at 3 μM MP1207. The activity at each receptor was measured in quadruplicate.
Screening of compounds was accomplished using previously described methods with several modifications ([Kroeze et al., 2015]). First, HTLA cells were plated in DMEM with 2% dialyzed FBS and 10 U/mL penicillin-streptomycin. Next, the cells were transfected using an in-plate PEI method ([Longo et al., 2013]). PRESTO-Tango receptor DNAs were resuspended in OptiMEM and hybridized with PEI prior to dilution and distribution into 384-well plates and subsequent addition to cells. After overnight incubation, drugs diluted in DMEM with 1% dialyzed FBS were added to cells without replacement of the medium. The remaining steps of the PRESTO-Tango protocol were followed as previously described.
Appendix 1—figure 6. […] MP1207 was screened against 330 non-olfactory GPCRs for agonism in the arrestin recruitment TANGO assay. […] MP1207 induces an increase in signal twofold over basal at opioid receptors predominantly at KOR and DOR and much less at MOR.

[1] = target: all screened targets except SERT and α2C-adrenoreceptors; assay: Radioligand binding counter-screen (NIMH PDSP), remaining targets; details: non-opioid targets
[2] = system: MOR KO, KOR KO and DOR KO mice; assay: 55°C warm-water tail-withdrawal assay in opioid receptor knock out mice; type: in vivo, mouse
rKOR = rKOR (Rattus norvegicus, UniProt P34975); details: BRET, rodent receptors
KOR [3] = target: T1, KOR (Homo sapiens, UniProt P41145); assay: cell-based
KOR [4] = target: T1, KOR; assay: cell-based; remark: listed apart in the source
DOR = DOR (Homo sapiens, UniProt P41143); assay: cell-based
[5] = DOR KO mice, 100 nmol i.c.v. in 50% DMSO, group mean n=8
[6] = DOR KO mice, 100 nmol i.c.v. in 50% DMSO, individual mouse
[7] = KOR KO mice, 100 nmol i.c.v. in 50% DMSO, group mean n=8
[8] = KOR KO mice, 100 nmol i.c.v. in 50% DMSO, individual mouse
[9] = KOR KO mice, 100 nmol i.c.v. in 50% DMSO, group mean n=6
[10] = KOR KO mice, 100 nmol i.c.v., per mouse
[11] = MP1207 30 nmol icv, MP1208 35 nmol icv

T1 sequence (P41145 whole entry): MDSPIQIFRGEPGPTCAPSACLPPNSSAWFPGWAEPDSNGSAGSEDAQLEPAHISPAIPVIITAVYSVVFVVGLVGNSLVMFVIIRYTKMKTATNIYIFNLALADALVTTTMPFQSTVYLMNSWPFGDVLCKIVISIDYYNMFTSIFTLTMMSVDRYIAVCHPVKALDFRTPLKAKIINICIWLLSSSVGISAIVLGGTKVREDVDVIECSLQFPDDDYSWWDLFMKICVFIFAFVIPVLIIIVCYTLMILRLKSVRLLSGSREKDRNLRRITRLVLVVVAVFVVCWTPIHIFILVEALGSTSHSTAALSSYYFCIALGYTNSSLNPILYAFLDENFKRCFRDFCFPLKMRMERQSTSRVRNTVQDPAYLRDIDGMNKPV
DOR, sequence (P41143 whole entry): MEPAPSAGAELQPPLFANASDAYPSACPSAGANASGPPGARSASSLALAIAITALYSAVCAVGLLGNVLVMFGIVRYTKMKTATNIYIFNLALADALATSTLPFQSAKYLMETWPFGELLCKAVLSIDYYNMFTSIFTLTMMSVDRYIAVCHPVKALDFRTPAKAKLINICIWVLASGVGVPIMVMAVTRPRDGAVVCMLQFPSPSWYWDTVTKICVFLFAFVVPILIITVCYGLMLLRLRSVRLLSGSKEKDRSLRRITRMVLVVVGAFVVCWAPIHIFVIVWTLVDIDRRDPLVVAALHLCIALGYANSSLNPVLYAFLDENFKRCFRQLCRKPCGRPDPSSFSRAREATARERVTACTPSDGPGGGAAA
rKOR, sequence (P34975 whole entry): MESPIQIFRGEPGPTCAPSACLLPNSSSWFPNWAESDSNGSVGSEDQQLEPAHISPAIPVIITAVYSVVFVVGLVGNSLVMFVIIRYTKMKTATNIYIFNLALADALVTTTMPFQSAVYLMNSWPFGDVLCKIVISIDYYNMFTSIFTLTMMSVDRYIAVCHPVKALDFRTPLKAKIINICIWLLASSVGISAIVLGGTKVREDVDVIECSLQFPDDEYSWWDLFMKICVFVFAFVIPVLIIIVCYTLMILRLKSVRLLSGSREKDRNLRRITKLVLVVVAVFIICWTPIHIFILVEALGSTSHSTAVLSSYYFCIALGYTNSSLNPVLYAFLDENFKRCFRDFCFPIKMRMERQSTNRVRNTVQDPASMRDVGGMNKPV

NCc1cccc(C(=O)N[C@@H]2CCC3C4Cc5ccc(O)c6c5[C@@]3(CCN4CC3CC3)C2O6)c1 (stereo partly drawn) [MP1207, 3-(Aminomethyl)-N-((7R,12bS)−3-(cyclopropylmethyl)−9-hydroxy-2,3,4,4a,5,6,7,7a-octahydro-1H-4,12-methanobenzofuro[3,2-e]isoquinolin-7-yl)benzamide] was tested, and the “agonism at 330 non-olfactory GPCRs (in words)” value (330 non-olfactory GPCRs) was “selective for opioid receptors; also recorded: no potent activity was confirmed”, the Ki [1] was over 10000 nM and the “%A-10 min” value [2, 5] was 77.68%. For the same compound, the “tail-withdrawal latency, 10 min” value [2, 5] was 12.075 s, the “%A-10 min” value [2, 6] was 100% and 14.62% and 6.82% and the “tail-withdrawal latency, 10 min” value [2, 6] was 15 s and 3.9 s and 2.7 s. The “%A-20 min” value [2, 5] was 75.4713%, the “tail-withdrawal latency, 20 min” value [2, 5] was 11.775 s and the “%A-20 min” value [2, 6] was 100% and 91.85% and 84.33% and 20.77% and 6.82%. The “tail-withdrawal latency, 20 min” value [2, 6] was 15 s and 13.9 s and 12.9 s and 4.7 s and 2.7 s, the “%A-30 min” value [2, 5] was 78.53% and the “tail-withdrawal latency, 30 min” value [2, 5] was 12.1875 s. The “%A-30 min” value [2, 6] was 100% and 13.85% and 14.39%, the “tail-withdrawal latency, 30 min” value [2, 6] was 15 s and 3.8 s and 3.7 s and the “%A-40 min” value [2, 5] was 46.6687%. The “tail-withdrawal latency, 40 min” value [2, 5] was 7.925 s, the “%A-40 min” value [2, 6] was 100% and 51.85% and 38.64% and 23.13% and 45.52% and 89.78% and 12.31% and 12.12% and the “tail-withdrawal latency, 40 min” value [2, 6] was 15 s and 8.5 s and 6.9 s and 4.7 s and 7.7 s and 13.6 s and 3.6 s and 3.4 s. The “%A-50 min” value [2, 5] was 38.3875%, the “tail-withdrawal latency, 50 min” value [2, 5] was 6.8 s and the “%A-50 min” value [2, 6] was 62.12% and 17.04% and 35.61% and 100% and 29.1% and 37.96% and 17.69% and 7.58%. For the same compound, the “tail-withdrawal latency, 50 min” value [2, 6] was 10 s and 3.8 s and 6.5 s and 15 s and 5.5 s and 4.3 s and 2.8 s, the “%A-60 min” value [2, 5] was 43.0038% and the “tail-withdrawal latency, 60 min” value [2, 5] was 7.425 s. For the same compound, the “%A-60 min” value [2, 6] was 62.12% and 55.56% and 25% and 100% and 36.57% and 36.5% and 16.92% and 11.36%, the “tail-withdrawal latency, 60 min” value [2, 6] was 10 s and 9 s and 5.1 s and 15 s and 6.5 s and 6.3 s and 4.2 s and 3.3 s and the “%A-70 min” value [2, 5] was 13.2125%. The “tail-withdrawal latency, 70 min” value [2, 5] was 3.4375 s, the “%A-70 min” value [2, 6] was 10.61% and 9.63% and 20.45% and 13.43% and 5.97% and 19.71% and 9.23% and 16.67% and the “tail-withdrawal latency, 70 min” value [2, 6] was 3.2 s and 2.8 s and 4.5 s and 3.4 s and 2.4 s and 4 s. The “%A-80 min” value [2, 5] was 8.564%, the “tail-withdrawal latency, 80 min” value [2, 5] was 2.8125 s and the “%A-80 min” value [2, 6] was 5.3% and 7.41% and 6.82% and 9.7% and 4.48% and 5.84% and 11.54% and 17.42%. The “tail-withdrawal latency, 80 min” value [2, 6] was 2.5 s and 2.7 s and 2.9 s and 2.2 s and 2.1 s and 3.5 s and 4.1 s, the “%A-90 min” value [2, 5] was 3.185% and the “tail-withdrawal latency, 90 min” value [2, 5] was 1.95 s. For the same compound, the “%A-90 min” value [2, 6] was 3.03% and 3.7% and 0% and 5.11% and 13.64%, the “tail-withdrawal latency, 90 min” value [2, 6] was 2.2 s and 2 s and 1.5 s and 1.4 s and 1.1 s and 1.8 s and 3.6 s and the “%A-100 min” value [2, 5] was 2.474%. For the same compound, the “tail-withdrawal latency, 100 min” value [2, 5] was 1.925 s, the “%A-100 min” value [2, 6] was 0% and 2.22% and 0.75% and 2.24% and 0.73% and 13.85% and the “tail-withdrawal latency, 100 min” value [2, 6] was 1.6 s and 1.8 s and 1.4 s and 1.7 s and 1.9 s and 3.8 s. The “%A-110 min” value [2, 5] was 0.555%, the “tail-withdrawal latency, 110 min” value [2, 5] was 1.6125 s and the “%A-110 min” value [2, 6] was 0% and 2.22% and 1.49% and 0.73%. For the same compound, the “tail-withdrawal latency, 110 min” value [2, 6] was 1.3 s and 1.8 s and 1.6 s and 1.4 s and 1.9 s and 1.7 s, the “%A-10 min” value [2, 7] was 63.4062% and the “tail-withdrawal latency, 10 min” value [2, 7] was 10.1 s. For the same compound, the “%A-10 min” value [2, 8] was 100% and 52.52% and 98.5% and 0% and 0.76%, the “tail-withdrawal latency, 10 min” value [2, 8] was 15 s and 8.4 s and 14.8 s and 1.8 s and 1.9 s and the “%A-20 min” value [2, 7] was 39.6638%. For the same compound, the “tail-withdrawal latency, 20 min” value [2, 7] was 6.8125 s, the “%A-20 min” value [2, 8] was 34.59% and 36.76% and 15.83% and 23.31% and 0% and 6.82% and the “tail-withdrawal latency, 20 min” value [2, 8] was 6.3 s and 6.4 s and 3.3 s and 4.8 s and 1 s and 2.7 s. The “%A-30 min” value [2, 7] was 26.1938%, the “tail-withdrawal latency, 30 min” value [2, 7] was 5.125 s and the “%A-30 min” value [2, 8] was 21.8% and 44.85% and 16.55% and 0% and 4.55%. The “tail-withdrawal latency, 30 min” value [2, 8] was 4.6 s and 7.5 s and 3.4 s and 2.2 s and 2.4 s, the “%A-40 min” value [2, 7] was 17.335% and the “tail-withdrawal latency, 40 min” value [2, 7] was 3.9125 s. For the same compound, the “%A-40 min” value [2, 8] was 14.29% and 16.91% and 15.83% and 12.78% and 7.81% and 6.82%, the “tail-withdrawal latency, 40 min” value [2, 8] was 3.6 s and 3.7 s and 3.3 s and 3.4 s and 3.2 s and 2.7 s and the “%A-50 min” value [2, 7] was 20.3588%. For the same compound, the “tail-withdrawal latency, 50 min” value [2, 7] was 4.2125 s, the “%A-50 min” value [2, 8] was 11.28% and 27.21% and 10.07% and 32.33% and 0% and 6.06% and the “tail-withdrawal latency, 50 min” value [2, 8] was 3.2 s and 5.1 s and 2.5 s and 6 s and 1.3 s and 2.6 s. For the same compound, the “%A-60 min” value [2, 7] was 11.2062%, the “tail-withdrawal latency, 60 min” value [2, 7] was 3.0875 s and the “%A-60 min” value [2, 8] was 3.76% and 12.5% and 6.47% and 0.75% and 6.25% and 1.52%. The “tail-withdrawal latency, 60 min” value [2, 8] was 2.2 s and 3.1 s and 2 s and 1.8 s and 3 s, the “%A-70 min” value [2, 7] was 9.87% and the “tail-withdrawal latency, 70 min” value [2, 7] was 2.85 s. The “%A-70 min” value [2, 8] was 5.26% and 19.85% and 3.6% and 7.52% and 0% and 10.61%, the “tail-withdrawal latency, 70 min” value [2, 8] was 2.4 s and 4.1 s and 1.6 s and 2.7 s and 1.8 s and 3.2 s and the “%A-80 min” value [2, 7] was 8.631%. For the same compound, the “tail-withdrawal latency, 80 min” value [2, 7] was 2.725 s, the “%A-80 min” value [2, 8] was 1.5% and 30.88% and 2.16% and 12.78% and 3.91% and 8.33% and the “tail-withdrawal latency, 80 min” value [2, 8] was 1.9 s and 5.6 s and 1.4 s and 3.4 s and 2.7 s and 2.9 s. For the same compound, the “%A-90 min” value [2, 7] was 1.379%, the “tail-withdrawal latency, 90 min” value [2, 7] was 1.7125 s and the “%A-90 min” value [2, 8] was 0% and 0.74% and 0.72% and 0.78% and 0.76%. For the same compound, the “tail-withdrawal latency, 90 min” value [2, 8] was 1.5 s and 1.2 s and 1.6 s and 2.3 s and 1.9 s, the “%A-100 min” value [2, 9] was 1.217% and the “tail-withdrawal latency, 100 min” value [2, 9] was 1.55 s. For the same compound, the “%A-100 min” value [2, 8] was 0.75% and 1.47% and 2.16% and 0%, the “tail-withdrawal latency, 100 min” value [2, 8] was 1.8 s and 1.6 s and 1.4 s and 1.5 s and the “%A-110 min” value [2, 9] was 0.365%. For the same compound, the “tail-withdrawal latency, 110 min” value [2, 9] was 1.467 s, the “%A-110 min” value [2, 8] was 0% and 0.74% and 0.72% and the “tail-withdrawal latency, 110 min” value [2, 8] was 1.7 s and 1.5 s and 1.2 s. The “%A-10 min” value [2, 10] was 100% and 55.47%, the “tail-withdrawal latency, 10 min” value [2, 10] was 15 s and 8.9 s and the “%A-20 min” value [2, 10] was 100%. The “tail-withdrawal latency, 20 min” value [2, 10] was 15 s, the “%A-30 min” value [2, 10] was 38.69% and 61.31% and the “tail-withdrawal latency, 30 min” value [2, 10] was 6.6 s and 9.7 s. The “%A-40 min” value [2, 10] was 31.39% and 32.85%, the “tail-withdrawal latency, 40 min” value [2, 10] was 5.6 s and 5.8 s and the “%A-50 min” value [2, 10] was 45.26% and 30.66%. For the same compound, the “tail-withdrawal latency, 50 min” value [2, 10] was 7.5 s and 5.5 s, the “%A-60 min” value [2, 10] was 13.14% and 45.26% and the “tail-withdrawal latency, 60 min” value [2, 10] was 3.1 s and 7.5 s. The “%A-70 min” value [2, 10] was 19.71% and 12.41%, the “tail-withdrawal latency, 70 min” value [2, 10] was 4 s and 3 s and the “%A-80 min” value [2, 10] was 8.03% and 1.46%. The “tail-withdrawal latency, 80 min” value [2, 10] was 2.4 s and 1.5 s, the “%A-90 min” value [2, 10] was 2.92% and 5.11% and the “tail-withdrawal latency, 90 min” value [2, 10] was 1.7 s and 2 s. The “%A-100 min” value [2, 10] was 0% and 2.92%, the “tail-withdrawal latency, 100 min” value [2, 10] was 1.3 s and 1.7 s and the “%A-110 min” value [2, 10] was 0% and 0.73%. For the same compound, the “tail-withdrawal latency, 110 min” value [2, 10] was 1.3 s and 1.4 s, the “antinociception in DOR KO mice vs WT” value [2, 11] was “remained intact” and the “antinociception in KOR KO mice vs WT” value [2, 11] was “attenuated”. The “antinociception in MOR KO mice vs WT” value [2, 11] was “attenuated”, the “arrestin recruitment at rKOR (in words)” value (rKOR) was “No recruitment of βarrestin-2” and the EC50 (KOR [3]; EC50 cAMP inhibition hKOR) was 0.11 nM. The Emax (KOR [3]; HEK-293T, read-out: Emax% cAMP inhibition hKOR) was 90 ± 1.7%, the EC50 (KOR [3]; pEC50 cAMP inhibition hKOR, ± SEM) was 0.105 nM and the EC50 (KOR [4]; EC50 arrestin recruitment (Tango) hKOR) was 3.97 nM. It also gave an Emax (KOR [4]; HTLA, read-out: Emax% arrestin recruitment (Tango) hKOR) of 37 ± 2%, an EC50 (DOR; EC50 arrestin recruitment hDOR, Tango) of 64.1 nM and an Emax (DOR; HTLA, read-out: Emax% arrestin recruitment hDOR) of 34 ± 3.7%.
